The results in this text go back to patent US20140371243A1, “MEDICAL USE OF A DPP-4 INHIBITOR” (Boehringer Ingelheim International GmbH, priority 2013, published 2014).

The subject of series [1] is femoral arteries after vascular injury. Briefly: Guidewire-induced femoral artery endothelial denudation injury, neointima formation (tissue analysis, elastic staining). It is filed as in vivo, C57BL/6 mice. To be noted: non-diabetic mice, femoral artery guide wire injury, 4 weeks after injury, 0.083 g/kg chow (3 mg/kg/d oral). The source says: 6-week-old male C57BL/6 mice were purchased and were housed in a polycarbonate cage with a wooden chip mat on the floor; water was available ad libitum. C57BL/6 mice were divided into 2 groups: control (n=14) and linagliptin-treated (n=14). At age 7 weeks, control mice were fed normal chow (22.6% protein, 53.8% carbohydrate, 5.6% fat, 6.6% mineral and vitamin mixture, and 3.3% fiber; total: 356 kcal/100 g) with vehicle; linagliptin-treated mice were fed normal chow with linagliptin (0.083 g/kg chow, which results in mean plasma levels of 50-150 nM, corresponding to an oral dose of 3 mg/kg/d). The animal room was kept on a 12-h light/dark cycle at a constant temperature (22±1° C.) with relative humidity of 55±5% throughout the experimental period. Endothelial denudation injuries were induced in the femoral artery at age 8 weeks, followed by evaluation of neointimal formation at age 12 weeks. Mouse femoral artery endothelial denudation injury was induced in C57BL/6 mice in the control and linagliptin groups at age 8 weeks, as previously described. […] Serial sections of 1.5 mm proximal region from the incision site for the wire insertion were evaluated by staining with Elastica van Gieson stain kit (4033-4037, Muto Pure Chemicals Co., Tokyo, Japan) to visualize the internal elastic lamina.

The nature of series [2]: Plasma levels of linagliptin in mice fed linagliptin in chow. The format is in vivo, C57BL/6 mice. The following applies: 0.083 g/kg chow, corresponding to oral dose of 3 mg/kg/d. The source says: (§1) 6-week-old male C57BL/6 mice were purchased and were housed in a polycarbonate cage with a wooden chip mat on the floor; water was available ad libitum. C57BL/6 mice were divided into 2 groups: control (n=14) and linagliptin-treated (n=14). At age 7 weeks, control mice were fed normal chow (22.6% protein, 53.8% carbohydrate, 5.6% fat, 6.6% mineral and vitamin mixture, and 3.3% fiber; total: 356 kcal/100 g) with vehicle; linagliptin-treated mice were fed normal chow with linagliptin (0.083 g/kg chow, which results in mean plasma levels of 50-150 nM, corresponding to an oral dose of 3 mg/kg/d). The animal room was kept on a 12-h light/dark cycle at a constant temperature (22±1° C.) with relative humidity of 55±5% throughout the experimental period. Endothelial denudation injuries were induced in the femoral artery at age 8 weeks, followed by evaluation of neointimal formation at age 12 weeks.

The subject of series [3] is rat aortic SMC. Briefly: FBS-induced vascular smooth muscle cell proliferation, BrdU incorporation assay. To be noted: in vitro, 10% FBS for 24 h, 12-h pre-treatment of linagliptin. The format is cell-based. The procedure:
Rat aortic vascular SMC (VSMC) and mouse aortic VSMC were serum-deprived in Dulbecco's modified Eagle's medium containing 0.1% fetal bovine serum (FBS) for at least 24 h and subjected to mitogenic stimulation with 10% FBS for 24 h with or without 12-h pre-treatment of linagliptin at the indicated concentration BrdU Assay. To evaluate cell proliferation of rat aortic SMC, the bromodeoxyuridine (BrdU) incorporation assay was performed using the Cell Proliferation enzyme-linked immunosorbent assay (ELISA) kit (1647229, Roche Applied Science, Mannheim, Germany) as previously described.

Series [4] can be described thus: Body weight and blood glucose in non-diabetic mice. It is filed as in vivo, C57BL/6 mice. The following applies: linagliptin vs. control, 0.083 g/kg chow (3 mg/kg/d oral).
Source text: as §1

Series [5] relates to active GLP-1. Put plainly: Serum active GLP-1 concentration (ELISA) in non-diabetic mice. It is filed as in vivo, C57BL/6 mice. The following applies: linagliptin vs. control, 0.083 g/kg chow (3 mg/kg/d oral).
Source text: as §1
(In general: An ELISA detects its analyte on a solid surface through an enzyme-linked reagent.)

Turning to `CC#CCn1c(N2CCC[C@@H](N)C2)nc2c1c(=O)n(Cc1nc(C)c3ccccc3n1)c(=O)n2C` [Linagliptin, 1-[(4-methyl-quinazolin-2-yl)methyl]-3-methyl-7-(2-butyn-1-yl)-8-(3-(R)-amino-piperidin-1-yl)-xanthine], the “neointima formation after vascular injury (intima area, media area, intima/media ratio)” value in series [1] is recorded as “attenuates”. In addition, the mean plasma levels in series [2] was in the range of 50 to 150 nM. Also, the “FBS-induced vascular smooth muscle (SMC) proliferation (BrdU assay)” value in series [3] is recorded as “reduces”. Moreover, in series [4], the blood glucose entry is given as “does not change” and the body weight entry is on record as “does not change”. Besides, in series [5], the “serum active GLP-1 concentration (ELISA)” value is on record as “increases”.
